Holding throughout (type): cell-based
For assay [1], the system named is Viridans group Streptococcus. The assay is described as follows: Broth microdilution MIC, 15 clinical isolates. As to conditions: for Mode: modal MIC. Here is the method: Minimal inhibitory concentration (MIC) values were determined by broth microdilution or agar dilution in accordance with guidelines from the Clinical and Laboratory Standards Institute (CLSI; (1) “Methods for Dilution Antimicrobial Susceptibility Tests for Bacteria That Grow Aerobically; Approved Standard; 11th ed.” CLSI standard M07-A11, 2018; (2) “Performance Standards for Antimicrobial Susceptibility Testing; Twenty-Eighth Informational Supplement,” CLSI document M100-S28, 2018; and (3) “Methods for Antimicrobial Susceptibility Testing of Anaerobic Bacteria; Approved Standard—Eighth Edition,” CLSI document M11-A8, 2012).
Tested aerobically by broth microdilution: • Escherichia coli, n=50 • Klebsiella spp., n=50 • Pseudomonas aeruginosa, n=50 • Streptococcus spp., n=50 • Staphylococcus aureus, n=50 • Enterococcus faecalis, n=50 • Enterobacter aerogenes, n=50 • Proteus mirabilis, n=50
Broth microdilution testing of aerobic bacteria was conducted in cation-adjusted Mueller Hinton broth (MHBII). For testing streptococci, lysed horse blood (LHB) was added to MHBII broth at a final concentration of 3%. Where LHB was used, it was added after filtering.
Broth microdilution susceptibility testing in 96-well microplates was conducted in accordance with CLSI methods (1) and (2). Automated liquid handlers were used to conduct serial dilutions and liquid transfers, including the Multidrop 384 (Labsystems, Helsinki, Finland), Biomek 2000, and the Biomek FX (Beckman Coulter, Fullerton, Calif.). All wells in columns 2 through 12 of a standard 96-well microdilution plate (Costar 3795) were filled with 150 μL of the appropriate diluent. Then, 300 μL of the test agents were added to the wells of column 1 of the plates at 100× the highest final concentration to be tested. Serial two-fold dilutions were made across the rows through column 11 using the Biomek 2000. The wells of column 12 contained no drug and served as the growth control wells. This plate served as the “mother plate” from which MIC assay plates or “daughter plates” were made.
The daughter plates were loaded with 190 μL per well of the appropriate medium using the Multidrop 384. The daughter plates were created using the Biomek FX which transferred 2 μL of drug solution from each well of a mother plate to each corresponding well of the daughter plate in a single step. A standardized inoculum of each test organism was prepared per CLSI methods (1) to equal a 0.5 McFarland standard, followed by a dilution of 1:20 for aerobes and 1:10 for anaerobes. The plates were then inoculated with 10 μL of the diluted inoculum using the Biomek 2000 from low to high drug concentration, resulting in a final concentration of approximately 5×10^5 CFU/mL per well. An un-inoculated plate was incubated in parallel for each medium for the purpose of assessing solubility of the drug in the test media.
Inoculated plates were stacked 3 or 4 high, covered with a sterile lid on the top plate, placed into boxes with CO2 planchets (streptococci) or plastic bags (all other isolates). Plates were incubated at 35° C. for 16-24 hr in ambient air for aerobes or for 42-48 hr in the anaerobic environment of the Bactron II anaerobe chamber (Sheldon Manufacturing Co.; Cornelius, Oreg.). Following incubation, the microplates were removed from the incubator and viewed from the bottom using a plate viewer. The MIC values were read and recorded as the lowest concentration of drug that inhibited visible growth of the organism as per CLSI methods (1) and (2).

In assay [2] the test system is Enterococcus faecalis clinical isolates. The assay is described as follows: MIC distribution against clinical isolates. The source says: (§1) As used herein, “minimum inhibitory concentration” or “MIC” refers to the lowest concentration of an antimicrobial agent, for example, an antimicrobial agent as described herein, required to inhibit the growth of an organism.
(§2) Many susceptibility testing methods are known in the art and can be used as described herein (see, e.g., Jorgensen and Ferraro (2009) Clinical Infectious Diseases 49:1749-1755; and Maurer et al. (2017) Infectious Disease Reports 9:6839; the entire contents of each of the foregoing are incorporated herein by reference). For example, antimicrobial susceptibility can be determined using conventional culture based methods such as the broth or agar dilution test. In these dilution tests, the bacterial isolate of interest is inoculated onto different media that include serial dilutions of an antimicrobial agent, and incubated under appropriate conditions (e.g., overnight at 37° C.) to allow for growth to occur. Following the incubation period, the media is examined to determine bacterial growth. The lowest concentration of antibiotic that prevents growth represents the minimal inhibitory concentration (MIC). Broth dilution tests can be miniaturized and mechanized allowing for reproducibility and high throughput.

Assay [3] has as its system Staphylococcus aureus clinical isolates. Put plainly: MIC distribution against clinical isolates. As to conditions: 50 S. aureus isolates.
Description: as §1, §2

The mark [4] stands for this setting: 15 Viridans group Streptococci clinical isolates.
The mark [5] stands for this setting: 15 Viridans group Streptococci clinical isolates, MXF by FDA breakpoints.
The mark [6] stands for this setting: MIC 0.5 μg/mL, 50 E. faecalis isolates.
Where [7] appears, read: MIC 1 μg/mL, 50 E. faecalis isolates.
Where [8] appears, read: MIC 2 μg/mL, 50 E. faecalis isolates.
[9] abbreviates: MIC 4 μg/mL, 50 E. faecalis isolates.
Setting [10] is: MIC 8 μg/mL, 50 E. faecalis isolates.
Setting [11] is: MIC 16 μg/mL, 50 E. faecalis isolates.
[12] abbreviates: MIC >16 μg/mL, 50 E. faecalis isolates.
The mark [13] stands for this setting: MIC >32 μg/mL, 50 E. faecalis isolates.
[14] abbreviates: MIC >64 μg/mL, 50 E. faecalis isolates.
Where [15] appears, read: MIC […], 50 E. faecalis isolates.

In brackets after ≈: the same amount, converted by molar mass. Several values for one entry are separate records, joined by “and”; a condition that tells them apart may be missing. Equal entries are not always repeated. Where two headings read alike, the source gives them in different places.

Four compounds from patent publication US20210386367A1, “DEVICES AND SYSTEMS FOR GASTROINTESTINAL MICROBIOME DETECTION AND MANIPULATION” (Progenity, Inc., priority 2018, published 2021) can be followed below.

On to `C[C@@H](O)[C@H]1C(=O)N2C(C(=O)O)=C(S[C@@H]3CN[C@H](C(=O)N(C)C)C3)[C@H](C)[C@H]12` [meropenem], for which the MIC50 in assay [1] (setting [4]) came to 0.015 µg/mL (≈ 0.0391 µM); in assay [1] (Streptococcus, read-out: MIC50), 0.015 µg/mL (≈ 0.0391 µM). Moreover, the MIC90 was determined as 0.5 µg/mL (≈ 1.3 µM) in assay [1] (setting [4]) and 0.5 µg/mL (≈ 1.3 µM) in assay [1] (Streptococcus, read-out: MIC90). In assay [1] (setting [4]), this compound displayed an MIC range of 0.004 to 0.5 µg/mL. For the same compound, the “% S” value in assay [1] (setting [5]) is 100%. Moreover, the Mode in assay [1] (setting [4]) turned out to be 0.015 µg/mL. In addition, the “Cumulative percentage of isolates inhibited at MIC” value worked out at 2.0% in assay [2] (setting [6]); 8.0% in assay [2] (setting [7]); 24.0% in assay [2] (setting [8]); 72.0% in assay [2] (setting [9]); 96.0% in assay [2] (setting [10]); 98.0% in assay [2] (setting [11]). In addition, the “Cumulative percentage of isolates inhibited at MIC” value came out at 100.0% in assay [2] (setting [12]); 12.0% in assay [3] (MIC 0.06 μg/mL); 46.0% in assay [3] (MIC 0.5 μg/mL); 52.0% in assay [3] (MIC 1 μg/mL); 56.0% in assay [3] (MIC 2 μg/mL); 78.0% in assay [3] (MIC 4 μg/mL). Besides, the “Cumulative percentage of isolates inhibited at MIC” value was 94.0% in assay [3] (MIC 8 μg/mL), 96.0% in assay [3] (MIC 16 μg/mL) and 100.0% in assay [3] (MIC >16 μg/mL). In addition, the “Number of test isolates at MIC” value in assay [2] (setting [6]) is recorded as 1; in assay [2] (setting [7]) it was 3; in assay [2] (setting [8]) it was 8; in assay [2] (setting [9]), 24; in assay [2] (setting [10]) it was 12; in assay [2] (setting [11]) it was 1. Further, the “Number of test isolates at MIC” value came to 1 in assay [2] (setting [12]); 6 in assay [3] (MIC 0.06 μg/mL); 1 in assay [3] (MIC 0.5 μg/mL); 3 in assay [3] (MIC 1 μg/mL); 2 in assay [3] (MIC 2 μg/mL); 11 in assay [3] (MIC 4 μg/mL). In addition, the results for the “Number of test isolates at MIC” value in assay [3] (MIC 8 μg/mL), in assay [3] (MIC 16 μg/mL) and in assay [3] (MIC >16 μg/mL) were 8, 1 and 2, respectively.
In assay [1] (setting [4]), `CN[C@H](CC(C)C)C(=O)N[C@H]1C(=O)N[C@@H](CC(N)=O)C(=O)N[C@H]2C(=O)N[C@H]3C(=O)N[C@H](C(=O)N[C@H](C(=O)O)c4cc(O)cc(O)c4-c4cc3ccc4O)[C@H](O)c3ccc(c(Cl)c3)Oc3cc2cc(c3O[C@@H]2O[C@H](CO)[C@@H](O)[C@H](O)[C@H]2O[C@H]2C[C@](C)(N)[C@H](O)[C@H](C)O2)Oc2ccc(cc2Cl)[C@H]1O` [vancomycin, Vancomycin] returned an MIC range of 0.25 to 1 µg/mL and a Mode of 0.5 µg/mL. In addition, the “% S” value in assay [1] (setting [5]) was 100%. In assay [1] (Streptococcus), this compound had an MIC50 of 0.5 µg/mL (≈ 0.345 µM) and an MIC90 of 0.5 µg/mL (≈ 0.345 µM). Moreover, in assay [2] (setting [13]), the “Cumulative percentage of isolates inhibited at MIC” value stood at 100.0% and the “Number of test isolates at MIC” value is listed as 13. Also, the “Cumulative percentage of isolates inhibited at MIC” value in assay [2] (listed as VAN) is 48.0% and 64.0% and 72.0% and 74.0%. Further, in assay [3] (MIC 1 μg/mL), the “Cumulative percentage of isolates inhibited at MIC” value was 100.0%.
In assay [1] (setting [4]), “piperacillin/tazobactam [piperacillin-tazobactam]” showed an MIC50 of 0.12 µg/mL. In assay [1] (setting [4]), the MIC90 was determined as 4 µg/mL. In assay [1] (setting [4]), this compound came in with an MIC range of 0.015 to 4 µg/mL. In assay [1] (setting [4]), this compound displayed a Mode of 0.06 µg/mL. The “Cumulative percentage of isolates inhibited at MIC” value is reported as 10.0% in assay [2] (setting [7]); 32.0% in assay [2] (setting [8]); 70.0% in assay [2] (setting [9]); 90.0% in assay [2] (setting [10]); 98.0% in assay [2] (setting [11]); 100.0% in assay [2] (setting [14]). The “Cumulative percentage of isolates inhibited at MIC” value in assay [2] (setting [15]) came to 2.0%; in assay [3] (MIC 0.5 μg/mL), 6.0%; in assay [3] (MIC 1 μg/mL), 24.0%; in assay [3] (MIC 2 μg/mL), 42.0%; in assay [3] (MIC 4 μg/mL), 46.0%; in assay [3] (MIC 8 μg/mL), 52.0%. Further, the “Cumulative percentage of isolates inhibited at MIC” value in assay [3] (MIC 16 μg/mL) was 54.0%; in assay [3] (MIC 32 μg/mL), 66.0%; in assay [3] (MIC 64 μg/mL), 92.0%; in assay [3] (MIC >64 μg/mL) it was 100.0%. The “Number of test isolates at MIC” value in assay [2] (setting [7]) stood at 4; in assay [2] (setting [8]) it was 11; in assay [2] (setting [9]), 19; in assay [2] (setting [10]), 10; in assay [2] (setting [11]), 4; in assay [2] (setting [14]) it was 1. The “Number of test isolates at MIC” value in assay [2] (setting [15]) is 1; in assay [3] (MIC 0.5 μg/mL), 3; in assay [3] (MIC 1 μg/mL), 9; in assay [3] (MIC 2 μg/mL), 9; in assay [3] (MIC 4 μg/mL), 2; in assay [3] (MIC 8 μg/mL), 3. Moreover, the “Number of test isolates at MIC” value is 1 in assay [3] (MIC 16 μg/mL), 6 in assay [3] (MIC 32 μg/mL), 13 in assay [3] (MIC 64 μg/mL) and 4 in assay [3] (MIC >64 μg/mL).
On to Penicillin, for which, in assay [1] (setting [4]), the MIC50 was 0.03 µg/mL, the MIC90 is 1 µg/mL, the MIC range lay in the range of 0.008 to 1 µg/mL and the Mode came to 0.015 µg/mL. In assay [1] (setting [5]), the “% I” value was 40% ^ and the “% S” value was found to be 60%.
